Source: ChEMBL document CHEMBL4334510, “Antitumor Activity of Vanicoside B Isolated from Persicaria dissitiflora by Targeting CDK8 in Triple-Negative Breast Cancer Cells” (J Nat Prod, 2019)
The source made the active and inactive calls. The rule behind the calls is not given here.

Columns and labels:
[1] = system: Mus musculus; test: Downregulation of Ki67 expression in Balb/c mouse xenografted with human MDA-MB-231 cells at 5 mg/kg, ip administered 3 times per week for 29 days by DAB staining based immunohistochemical analysis; assay type: functional, organism-based
[2] = Toxicity in Balb/c mouse xenografted with human MDA-MB-231 cells assessed as reduction in body weight at 5 mg/kg, ip ip administered 3 times per week and measured 2 times per week for 29 days; assay type: organism-based; conditions: in vivo, 696 h
[3] = system: Mus musculus; test: Downregulation of AXL expression in Balb/c mouse xenografted with human MDA-MB-231 cells at 5 mg/kg, ip administered 3 times per week for 29 days by DAB staining based immunohistochemical analysis; assay type: functional, organism-based
[4] = system: Mus musculus; test: Downregulation of phosphorylated STAT1 expression at ser727 residue in Balb/c mouse xenografted with human MDA-MB-231 cells at 5 mg/kg, ip administered 3 times per week for 29 days by DAB staining based immunohistochemical analysis; assay type: functional, organism-based
[5] = system: HCC38; test: Inhibition of colony formation in human HCC38 cells assessed as reduction in number of colonies at 2.5 to 20 uM after 14 days by crystal violet staining based light microscopic analysis; assay type: functional, cell-based
[6] = system: HCC38; test: Cell cycle arrest in human HCC38 cells assessed as increase in accumulation of cells at sub-G1 phase at 2.5 to 10 uM by PI/RNase staining based flow cytometric analysis; assay type: functional
[7] = target: Cyclin-dependent kinase 8 (Homo sapiens) (UniProt P49336); test: Inhibition of CDK8 in human MDA-MB-231 cells assessed as increase in P27 expression at 10 uM after 24 hrs by RT-PCR analysis; assay type: cell-based
[8] = system: MDA-MB-231; test: Antitumour activity against human MDA-MB-231 cells xenografted in Balb/c mouse assessed as reduction in tumour volume at 5 mg/kg, ip administered 3 times per week and measured 2 times per week for 29 days relative to control; assay type: functional; set-up: scale not given: the % may be the effect or the level left
[9] = system: MDA-MB-231; test: Antimigratory activity against human MDA-MB-231 cells at 1.25 to 5 uM after 24 hrs by scratch wound healing based microscopic analysis; assay type: functional, cell-based
[10] = system: MDA-MB-231; test: Inhibition of epithelial-mesenchymal transition in human MDA-MB-231 cells reduction in BMP4 protein expression after 24 hrs by Western blot analysis; assay type: functional, cell-based
[11] = system: HCC38; test: Inhibition of epithelial-mesenchymal transition in human HCC38 cells increase in E-cadherin expression at 5 uM after 24 hrs by RT-PCR analysis; assay type: functional, cell-based
[12] = target: Cyclin-dependent kinase 8 (Homo sapiens) (UniProt P49336); test: Inhibition of CDK8 in human MDA-MB-231 cells assessed as reduction in AXL expression after 24 hrs by Western blot analysis; assay type: cell-based
[13] = target: Cyclin-dependent kinase 8 (Homo sapiens) (UniProt P49336); test: Inhibition of CDK8 in human HCC38 cells assessed as reduction in STAT3 phosphorylation after 24 hrs by Western blot analysis; assay type: cell-based
[14] = system: Mus musculus; test: Downregulation of AXL expression in Balb/c mouse xenografted with human MDA-MB-231 cells at 5 to 20 mg/kg, ip administered 3 times per week for 29 days by DAB staining based immunohistochemical analysis; assay type: functional, organism-based
[15] = target: Cyclin-dependent kinase 8 (Homo sapiens) (UniProt P49336); test: Inhibition of CDK8 in human MDA-MB-231 cells assessed as reduction in STAT1 phosphorylation at Ser727 residue after 24 hrs by Western blot analysis; assay type: cell-based
[16] = target: Cyclin-dependent kinase 8 (Homo sapiens) (UniProt P49336); test: Inhibition of CDK8 in human HCC38 cells assessed as increase in P27 expression after 48 hrs by Western blot analysis; assay type: cell-based
[17] = target: Cyclin-dependent kinase 8 (Homo sapiens) (UniProt P49336); test: Inhibition of CDK8 in human MDA-MB-231 cells assessed as reduction in HK1 expression at 10 uM after 24 hrs by RT-PCR analysis; assay type: cell-based
[18] = system: MDA-MB-231; test: Inhibition of colony formation in human MDA-MB-231 cells assessed as reduction in number of colonies at 2.5 to 20 uM after 14 days by crystal violet staining based light microscopic analysis; assay type: functional, cell-based
[19] = system: MDA-MB-231; test: Inhibition of colony formation in human MDA-MB-231 cells assessed as reduction in colony size at 2.5 to 20 uM after 14 days by crystal violet staining based light microscopic analysis; assay type: functional, cell-based
[20] = system: MDA-MB-231; test: Inhibition of epithelial-mesenchymal transition in human MDA-MB-231 cells increase in E-cadherin expression at 5 uM after 24 hrs by RT-PCR analysis; assay type: functional, cell-based
[21] = system: MDA-MB-231; test: Induction of apoptosis in human MDA-MB-231 cells at 2.5 to 20 uM after 48 hrs by Annexin-V/PI staining based flow cytometric analysis; assay type: functional, cell-based
[22] = system: Mus musculus; test: Downregulation of Ki67 expression in Balb/c mouse xenografted with human MDA-MB-231 cells at 5 to 20 mg/kg, ip administered 3 times per week for 29 days by DAB staining based immunohistochemical analysis; assay type: functional, organism-based
[23] = system: HCC38; test: Induction of apoptosis in human HCC38 cells assessed as increase in PARP cleavage after 48 hrs by Western blot analysis; assay type: functional, cell-based
[24] = system: MDA-MB-231; test: Inhibition of epithelial-mesenchymal transition in human MDA-MB-231 cells reduction in beta catenin protein expression after 24 hrs by Western blot analysis; assay type: functional, cell-based
[25] = system: HCC38; test: Inhibition of colony formation in human HCC38 cells assessed as reduction in colony size at 20 uM after 14 days by crystal violet staining based light microscopic analysis; assay type: functional, cell-based
[26] = target: Cyclin-dependent kinase 8 (Homo sapiens) (UniProt P49336); test: Inhibition of CDK8 in human HCC38 cells assessed as increase in P27 expression at 10 uM after 24 hrs by RT-PCR analysis; assay type: cell-based
[27] = system: MDA-MB-231; test: Induction of apoptosis in human MDA-MB-231 cells assessed as increase in PARP cleavage after 48 hrs by Western blot analysis; assay type: functional, cell-based
[28] = target: Cyclin-dependent kinase 8 (Homo sapiens) (UniProt P49336); test: Inhibition of CDK8 in human HCC38 cells assessed as reduction in HK1 expression at 10 uM after 24 hrs by RT-PCR analysis; assay type: cell-based
[29] = system: HCC38; test: Inhibition of epithelial-mesenchymal transition in human HCC38 cells reduction in beta catenin protein expression after 24 hrs by Western blot analysis; assay type: functional, cell-based
[30] = target: Cyclin-dependent kinase 8 (Homo sapiens) (UniProt P49336); test: Inhibition of CDK8 in human MDA-MB-231 cells assessed as reduction in S6 phosphorylation after 24 hrs by Western blot analysis; assay type: cell-based
[31] = target: Cyclin-dependent kinase 8 (Homo sapiens) (UniProt P49336); test: Inhibition of CDK8 in human HCC38 cells assessed as reduction in AXL expression after 24 hrs by Western blot analysis; assay type: cell-based
[32] = system: MDA-MB-231; test: Cell cycle arrest in human MDA-MB-231 cells assessed as increase in accumulation of cells at sub-G1 phase at 2.5 to 10 uM by PI/RNase staining based flow cytometric analysis; assay type: functional
[33] = system: MDA-MB-231; test: Antitumour activity against human MDA-MB-231 cells xenografted in Balb/c mouse assessed as reduction in tumour volume at 20 mg/kg, ip administered 3 times per week and measured 2 times per week for 29 days relative to control; assay type: functional; set-up: scale not given: the % may be the effect or the level left
[34] = system: HCC38; test: Induction of apoptosis in human HCC38 cells at 2.5 to 20 uM after 48 hrs by Annexin-V/PI staining based flow cytometric analysis; assay type: functional, cell-based
[35] = system: HCC38; test: Inhibition of epithelial-mesenchymal transition in human HCC38 cells reduction in N-cadherin expression at 5 uM after 24 hrs by RT-PCR analysis; assay type: functional, cell-based
[36] = target: Cyclin-dependent kinase 8 (Homo sapiens) (UniProt P49336); test: Inhibition of CDK8 in human MDA-MB-231 cells assessed as reduction in skp2 expression after 48 hrs by Western blot analysis; assay type: cell-based
[37] = target: Cyclin-dependent kinase 8 (Homo sapiens) (UniProt P49336); test: Inhibition of CDK8 in human MDA-MB-231 cells assessed as increase in P27 expression after 48 hrs by Western blot analysis; assay type: cell-based
[38] = target: Cyclin-dependent kinase 8 (Homo sapiens) (UniProt P49336); test: Inhibition of CDK8 in human MDA-MB-231 cells assessed as reduction in STAT3 phosphorylation after 24 hrs by Western blot analysis; assay type: cell-based
[39] = system: Mus musculus; test: Downregulation of phosphorylated STAT1 expression at ser727 residue in Balb/c mouse xenografted with human MDA-MB-231 cells at 5 to 20 mg/kg, ip administered 3 times per week for 29 days by DAB staining based immunohistochemical analysis; assay type: functional, organism-based
[40] = system: MDA-MB-231; test: Antiproliferative activity against human MDA-MB-231 cells assessed as reduction in cell viability after 72 hrs by SRB assay; assay type: functional, cell-based
[41] = system: MDA-MB-231; test: Inhibition of epithelial-mesenchymal transition in human MDA-MB-231 cells reduction in vimentin protein expression after 24 hrs by Western blot analysis; assay type: functional, cell-based
[42] = system: MDA-MB-231; test: Inhibition of epithelial-mesenchymal transition in human MDA-MB-231 cells reduction in N-cadherin expression at 5 uM after 24 hrs by RT-PCR analysis; assay type: functional, cell-based
[43] = system: HCC38; test: Inhibition of epithelial-mesenchymal transition in human HCC38 cells reduction in BMP4 protein expression after 24 hrs by Western blot analysis; assay type: functional, cell-based
[44] = target: Cyclin-dependent kinase 8 (Homo sapiens) (UniProt P49336); test: Inhibition of CDK8 in human HCC38 cells assessed as reduction in S6 phosphorylation after 24 hrs by Western blot analysis; assay type: cell-based
[45] = target: Cyclin-dependent kinase 8 (Homo sapiens) (UniProt P49336); test: Inhibition of CDK8 in human HCC38 cells assessed as reduction in STAT1 phosphorylation at Ser727 residue after 24 hrs by Western blot analysis; assay type: cell-based
[46] = system: HCC38; test: Antimigratory activity against human HCC38 cells at 1.25 to 5 uM after 24 hrs by scratch wound healing based microscopic analysis; assay type: functional, cell-based
[47] = system: HCC38; test: Inhibition of epithelial-mesenchymal transition in human HCC38 cells reduction in vimentin protein expression after 24 hrs by Western blot analysis; assay type: functional, cell-based
[48] = target: Cyclin-dependent kinase 8 (Homo sapiens) (UniProt P49336); test: Inhibition of CDK8 in human HCC38 cells assessed as reduction in skp2 expression after 48 hrs by Western blot analysis; assay type: cell-based
[49] = Toxicity in Balb/c mouse xenografted with human MDA-MB-231 cells assessed as effect on body weight at 5 to 20 mg/kg, ip ip administered 3 times per week and measured 2 times per week for 29 days; assay type: organism-based; conditions: in vivo, 696 h
[50] = system: HCC38; test: Antiproliferative activity against human HCC38 cells assessed as reduction in cell viability after 72 hrs by SRB assay; assay type: functional, cell-based

Chain of Cyclin-dependent kinase 8 (Homo sapiens) (P49336 whole entry): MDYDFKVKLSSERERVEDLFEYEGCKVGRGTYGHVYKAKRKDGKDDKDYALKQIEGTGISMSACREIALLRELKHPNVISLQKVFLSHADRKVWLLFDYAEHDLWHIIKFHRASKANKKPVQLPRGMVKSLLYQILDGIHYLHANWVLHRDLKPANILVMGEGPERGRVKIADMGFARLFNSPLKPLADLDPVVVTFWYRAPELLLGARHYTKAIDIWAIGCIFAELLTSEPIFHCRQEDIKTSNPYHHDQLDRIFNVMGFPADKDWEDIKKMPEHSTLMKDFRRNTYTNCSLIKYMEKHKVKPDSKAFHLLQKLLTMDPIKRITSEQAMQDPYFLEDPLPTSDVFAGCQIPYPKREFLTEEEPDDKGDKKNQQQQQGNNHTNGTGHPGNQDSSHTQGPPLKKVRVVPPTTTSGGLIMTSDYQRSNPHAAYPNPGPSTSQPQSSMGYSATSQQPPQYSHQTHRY

CC(=O)O[C@H]1C(=O)[C@@]2(C)[C@H]([C@H](OC(=O)c3ccccc3)[C@]3(O)C[C@H](OC(=O)[C@H](O)[C@@H](NC(=O)c4ccccc4)c4ccccc4)C(C)=C1C3(C)C)[C@]1(OC(C)=O)CO[C@@H]1C[C@@H]2O [PACLITAXEL]
Activity [1]: Active | Activity [2]: Toxic | Activity [3]: inactive | Activity [4]: inactive

COc1cc(/C=C/C(=O)OC[C@H]2O[C@H](O[C@]3(COC(=O)/C=C/c4ccc(O)cc4)O[C@H](COC(=O)/C=C/c4ccc(O)cc4)[C@@H](O)[C@@H]3OC(=O)/C=C/c3ccc(O)cc3)[C@H](O)[C@@H](O)[C@@H]2O)ccc1O [VANICOSIDE B]
inhibition [5]: Active | Activity [6]: Active | inhibition [7]: Active | Activity [8]: 53.85% | Activity [9]: Active | inhibition [10]: Dose-dependent effect | inhibition [11]: Active | inhibition [12]: Dose-dependent effect | inhibition [13]: Dose-dependent effect | Activity [14]: Active | inhibition [15]: Dose-dependent effect | inhibition [16]: Dose-dependent effect | inhibition [17]: Active | inhibition [18]: Active | inhibition [19]: Active | inhibition [20]: Active | Activity [21]: Active | Activity [22]: Active | Activity [23]: Dose-dependent effect | inhibition [24]: Dose-dependent effect | inhibition [25]: Active | inhibition [26]: Active | Activity [27]: Dose-dependent effect | inhibition [28]: Active | inhibition [29]: Dose-dependent effect | inhibition [30]: Dose-dependent effect | inhibition [31]: Dose-dependent effect | Activity [32]: Active | Activity [33]: 65.72% | Activity [34]: Active | inhibition [35]: Active | inhibition [36]: Dose-dependent effect | inhibition [37]: Dose-dependent effect | inhibition [38]: Dose-dependent effect | Activity [39]: Active | Activity [40]: Dose-dependent effect | IC50 ([40]; MDA-MB-231, 72 h): 9 µM | inhibition [41]: Dose-dependent effect | inhibition [42]: Active | inhibition [43]: Dose-dependent effect | inhibition [44]: Dose-dependent effect | inhibition [45]: Dose-dependent effect | Activity [46]: Active | inhibition [47]: Dose-dependent effect | inhibition [48]: Dose-dependent effect | Activity [49]: Non-Toxic | Activity [50]: Dose-dependent effect
